Measured values published in US6287840A (Axys Pharmaceuticals, Inc., priority 1999, dated 2001).
Like-named read-outs stand apart in the source and are kept apart here.

Columns and labels:
[1] = tested on: Trypanosoma cruzi amastigote infected macrophages; test: In vitro antiprotozoal activity, Trypanosoma cruzi; assay type: cell-based
Method: (§1) In this table, the in vitro antiprotozoal activities of the indicated compounds were measured as percentage inhibition of Leishmania donovani amastigote infecteda mouse peritoneal macrophages, Trypanosoma cruzi amastigote infected macrophages, and Trypanosoma brucei extracellular bloodstream forms.

[2] = tested on: Trypanosoma brucei extracellular bloodstream forms; test: In vitro antiprotozoal activity, Trypanosoma brucei; assay type: cell-based
Method: as §1

cruzain, from T. cruzi = cruzain, from T. cruzi (Trypanosoma cruzi, UniProt P25779); test: Inhibition of cruzain, as for cathepsin L; assay type: biochemical; conditions: for kobs /[I]* (approximate second-order inactivation constant): values marked *; for k/KI (kirr/KI): values without asterisk
Chain of cruzain, from T. cruzi (P25779 123-337 limits assumed): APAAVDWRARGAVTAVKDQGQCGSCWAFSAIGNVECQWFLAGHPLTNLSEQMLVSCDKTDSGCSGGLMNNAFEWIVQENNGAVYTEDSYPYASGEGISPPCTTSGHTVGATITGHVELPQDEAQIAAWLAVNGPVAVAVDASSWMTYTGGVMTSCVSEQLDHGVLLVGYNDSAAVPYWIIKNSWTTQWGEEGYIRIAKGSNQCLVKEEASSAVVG
Outline: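 Run as for cathepsin L with 1 nM cruzain in 50 mM phosphate pH […], 2.5 mM DTT, 2.5 mM EDTA, 5 μM Z-Phe-Arg-AMC, at 25 °C, inhibitors 30-0.001 μM; fluorescence (ex 380/em 460 nm) followed continuously. kobs fitted from progress curves and kobs/[I] reported; selected compounds gave kirr, KI, kirr/KI, with KI corrected by (1+[S]/Km).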

[3] = tested on: mouse malarial parasite Plasmodium vinckei; test: In vitro protease activity of malarial parasite, substrate Z-Phe-Arg-AMC; assay type: biochemical; conditions: read-out: P. vinckei IC50 (murine)
Source text: (§2) The following table summarizes the comparative IC50 values for selected cysteine protease inhibitors against the human malarial parasite Plasmodium falciparum and the mouse malarial parasite Plasmodium vinckei. The substrate used to measure in vitro protease activity was Z-Phe-Arg-AMC.

[4] = tested on: human malarial parasite Plasmodium falciparum; test: as above; assay type: biochemical; conditions: read-out: P. falciparum IC50 (human)
Source text: as §2

[5] = target: T1, Cathepsin B from human placenta (Homo sapiens, UniProt P07858); test: Inhibition of cathepsin B, Z-Arg-Arg-AMC fluorescence progress curves; assay type: biochemical; conditions: for k/KI (kirr/KI): values without asterisk; for Ki: corrected for substrate
T1 construct: Cathepsin B from human placenta, obtained from Sigma; purchased Sigma; host or cells: human placenta (tissue)
Outline: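 Human placental enzyme (~10 nM) in 50 mM phosphate pH 6.2 with 2.5 mM DTT and 2.5 mM EDTA, 50 μM Z-Arg-Arg-AMC, inhibitors 30-0.001 μM, 25° C. AMC fluorescence (ex 380/em 460 nm) progress curves fitted for kobs; kobs/[I] reported, with kirr, KI and kirr/KI substrate-corrected for selected compounds.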

[6] = target: T2, Cathepsin L from rat liver (Rattus norvegicus, UniProt P07154); test: Inhibition of cathepsin L, Z-Phe-Arg-AMC fluorescence progress curves; assay type: biochemical; conditions: for kobs /[I]* (approximate second-order inactivation constant): values marked *; for kobs /[I]* (approximate second-order inactivation constant) / k/KI (kirr/KI): 25° C., pH 6.2; for Ki: corrected for substrate; for k/KI (kirr/KI): values without asterisk
T2 construct: Cathepsin L from rat liver; from tissue; host or cells: rat liver
T2 sequence (P07154 114-288 limits assumed): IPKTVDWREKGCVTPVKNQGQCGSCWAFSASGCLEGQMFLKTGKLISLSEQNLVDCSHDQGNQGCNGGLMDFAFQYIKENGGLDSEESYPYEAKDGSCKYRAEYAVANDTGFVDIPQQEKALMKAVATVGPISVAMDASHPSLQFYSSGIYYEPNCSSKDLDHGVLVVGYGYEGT
T2 sequence (P07154 291-334 limits assumed): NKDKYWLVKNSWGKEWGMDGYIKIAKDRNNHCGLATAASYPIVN
Outline: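 Progress curves of AMC release (380/460 nm) over at least 3 inactivation half-times were fitted to kobs, reported as kobs/[I] or, via 1/[I] vs 1/kobs, kirr, KI (substrate-corrected) and kirr/KI.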

Cloned cathepsin S = target: T3, Cloned cathepsin S (Homo sapiens, UniProt P25774); test: Inhibition of cathepsin S, Z-Val-Val-Arg-AMC fluorescence progress curves; assay type: biochemical; conditions: for kobs /[I]* (approximate second-order inactivation constant): values marked *; for kobs /[I]* (approximate second-order inactivation constant) / k/KI (kirr/KI): 25° C., pH 6.5; for Ki: corrected for substrate; for k/KI (kirr/KI): values without asterisk
T3 construct: made in house
T3 sequence (P25774 115-331): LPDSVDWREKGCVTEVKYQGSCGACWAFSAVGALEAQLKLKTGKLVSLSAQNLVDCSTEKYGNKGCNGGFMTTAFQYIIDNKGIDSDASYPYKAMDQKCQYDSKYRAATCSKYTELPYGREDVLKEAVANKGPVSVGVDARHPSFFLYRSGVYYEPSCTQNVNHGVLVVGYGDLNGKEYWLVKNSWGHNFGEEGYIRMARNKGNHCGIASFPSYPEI
Outline: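 Progress curves at 25 °C in 100 mM phosphate pH 6.5, 2.5 mM DTT, 2.5 mM EDTA, 0.01% Triton, enzyme <1 nM, 10 μM substrate, inhibitors 30-0.001 μM; AMC fluorescence ex 380/em 460 nm. kobs from nonlinear fits gave kobs/[I]; selected compounds yielded kirr, KI (substrate-corrected), kirr/KI.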

calpain = test: Inhibition (inactivation) of calpain, Suc-Leu-Tyr-AMC; assay type: biochemical; conditions: pH 7.5, 5 mM CaCl2, 25° C.; for kobs /[I]*: values marked * (or %); for k/KI (kirr/KI): values without asterisk
Method: The inhibitors were tested against calpain at 1 or 2% as for the other enzymes. The reaction conditions were 50 mM Tris, pH 7.5, 5 mM CaCl2, 2.5 mM DTT, assayed at 25° C. The substrate was 100 μM Suc-Leu-Tyr-AMC.

[7] = tested on: Leishmania donovani amastigote infected mouse peritoneal macrophages; test: In vitro antiprotozoal activity, Leishmania donovani; assay type: cell-based; design: key to percentage inhibition, L. donovani: the term "T" indicates the molecule to have displayed cytotoxicity
Method: as §1

T. cruzi = T. cruzi infected irradiated J774 cells; assay type: cell-based; design: dose or concentration left out as unconfirmed; conditions: thereafter without inhibitor; compounds listed in decreasing order of effectiveness
Method: Irradiated J774 cells were infected with T. cruzi and simultaneously treated with […] of peptidyl vinyl derivatives for 5 days; thereafter without inhibitor. The following compounds were effective in decreasing order: Mu-Phe-ArgVSPh, Boc-Tyr(I2)-HphVSPh, Mu-Phe-VaIVSPh, Boc-Tic-HphVSPh, Mu-Phe-Ser(OBzl)VSPh, Mu-Leu-HphVSPh, Mu-Tyr(I2)-HphVSPh, Mu-Phe-LysVSPh, Mu-Tic-HphVSPh.

Row | Molecule | percentage inhibition, T. cruzi ([1]; 3 uM) [%] | percentage inhibition, T. cruzi ([1]; 10 uM) [%] | percentage inhibition, T. cruzi ([1]; 30 uM) [%] | percentage inhibition, T. cruzi ([1]; 90 uM) [%] | percentage inhibition, T. brucei ([2]; 3 uM) [%] | percentage inhibition, T. brucei ([2]; 10 uM) [%] | percentage inhibition, T. brucei ([2]; 30 uM) [%] | percentage inhibition, T. brucei ([2]; 90 uM) [%] | kobs /[I]* (approximate second-order inactivation constant) (cruzain, from T. cruzi) | IC50 ([4]; cells printed in nM) [nM] | k/KI (kirr/KI) ([5]; 25° C., pH 6.2) | kobs /[I]* (approximate second-order inactivation constant) (Cloned cathepsin S) | percentage inhibition, L. donovani ([7]; 3 uM) [%] | percentage inhibition, L. donovani ([7]; 10 uM) [%] | percentage inhibition, L. donovani ([7]; 30 uM) [%] | percentage inhibition, L. donovani ([7]; 90 uM) | kirr [5] [s⁻¹] | Ki [5] [µM] | k/KI (kirr/KI) [6] | effectiveness against T. cruzi in J774 cells (T. cruzi) | other results
1 | (S)-(E)-Benzyl 4-(4-morpholinecarbonylphenylalanyl)amino-6-phenyl-2-hexenamide [Mu-Phe-HphVAMBzl] | 0 | 0 | 0 | 5.83 | 0 | 0 | 0 | 0 | 70,200 M^-1 sec^-1 | 200 | < 100 M⁻¹ s⁻¹ | 10,800 M^-1 sec^-1 | 0 | 0 | 14.2 | 23.3% |  |  |  |  | IC50 ([3]; cells printed in μM): 2 µM; kobs /[I]* (approximate second-order inactivation constant) [6]: 2800 M⁻¹ s⁻¹; kobs /[I]* (calpain): < 50 M⁻¹ s⁻¹
2 | O=C(NCCCC[C@@H](/C=C/S(=O)(=O)c1ccccc1)NC(=O)[C@H](Cc1ccccc1)NC(=O)N1CCOCC1)OCc1ccccc1 [Mu-Phe-Lys(Z)VSPh, (S)-(E)-7-(benzyloxycarbonyl)amino-3-(4-morpholinecarbonylphenylalanyl)-amino-1-phenylsulfonyl-1-heptene] | 0 | 0 | 0 | 0 | 29.9 | 81.3 | 100 | 100 |  | 100 | 39,200 M^-1 sec^-1 |  | 0 | 0 | 0 | 0% | 0.18 | 4.7 | 120,000 M^-1 sec^-1 |  | ED50, T. brucei [2]: 3.64 µM; percentage inhibition, T. brucei ([2]; 1 uM): 19.8%; k/KI (kirr/KI) (cruzain, from T. cruzi): 44,500 M^-1 sec^-1; IC50 ([3]; cells printed in nM): 0.08 µM; kirr [6]: 0.45 s⁻¹; Ki [6]: 3.8 µM; kirr (Cloned cathepsin S): 0.14 s⁻¹; Ki (Cloned cathepsin S): 0.054 µM; k/KI (kirr/KI) (Cloned cathepsin S): 2,600,000 M^-1 sec^-1
3 | (S)-(E)-3-(4-morpholinecarbonylphenylalanyl)amino-4-methyl-1-phenylsulfonyl-1-pentene [Mu-Phe-ValVSPh] | 5.5 | 6.2 | 18.9 | 74.2 | 13.5 | 35.4 | 72.7 | 100 | 28,000 M^-1 sec^-1 |  |  |  | 100 | 100 | 100 | T |  |  | 74,000 M^-1 sec^-1 | effective | ED50, T. cruzi [1]: 61.88 µM; ED50, T. brucei [2]: 13.85 µM; percentage inhibition, T. brucei ([2]; 1 uM): 11.9%; IC50 ([3]; cells printed in μM): 1 µM; IC50 ([4]; cells printed in μM): 1000 nM; kirr [6]: 0.19 s⁻¹; Ki [6]: 2.6 µM; kirr (Cloned cathepsin S): 0.039 s⁻¹; Ki (Cloned cathepsin S): 0.13 µM; k/KI (kirr/KI) (Cloned cathepsin S): 290,000 M^-1 sec^-1; kobs /[I]* (calpain): 180 M⁻¹ s⁻¹
4 | (S)-(E)-3-[4-tert-butoxycarbonyl-(3,5-diiodotyrosyl)]-amino-5-phenyl-1-phenylsulfonyl-1-pentene [Boc-Tyr(I2)-HphVSPh] |  |  |  |  |  |  |  |  | 280,000 M^-1 sec^-1 |  |  | 210,000 M^-1 sec^-1 |  |  |  |  |  |  |  | effective | kobs /[I]* (approximate second-order inactivation constant) ([5]; values marked *, 25° C., pH 6.2): 1400 M⁻¹ s⁻¹; kobs /[I]* (approximate second-order inactivation constant) [6]: 105,000 M^-1 sec^-1; k/KI (kirr/KI) (calpain): 0 M⁻¹ s⁻¹
5 | (S)-(E)-3-(4-morpholinecarbonylphenylalanyl)amino-1-methylsulfonyl-1-butene [Mu-Phe-AlaVSMe] | 0 | 0 | 11.2 | 12.2 | 0 | 0 | 0 | 0 | 700 M⁻¹ s⁻¹ |  | 300 M⁻¹ s⁻¹ | 26,000 M^-1 sec^-1 | 0 | 0 | 0 | 6.7% | 0.19 | ~1000 |  |  | IC50 ([4]; cells printed in μM): 20000 nM; kobs /[I]* (calpain): < 50 M⁻¹ s⁻¹
6 | COC(=O)C1CCCN1C(=O)C(CC(C)C)NC(=O)/C=C/[C@H](CCc1ccccc1)NC(=O)[C@H](Cc1ccccc1)NC(=O)N1CCOCC1 (stereo partly drawn) [Mu-Phe-HphVAMLeu-ProOMe, (S)-(E)-(N-leucylprolinemethylester)-4-(4-morpholinecarbonylphenyl-alanyl)amino-6-phenyl-2-hexenamide] |  |  |  |  |  |  |  |  |  | 80 |  |  |  |  |  |  |  |  |  |  | IC50 ([3]; cells printed in nM): 0.6 µM
7 | ethyl (S)-(E)-4-(4-morpholinecarbonylphenylalanyl)-amino-6-phenyl-2-hexenoate [Mu-Phe-HphVEOEt] |  |  |  |  |  |  |  |  | 80,400 M^-1 sec^-1 | 300 | 10,100 M^-1 sec^-1 |  |  |  |  |  | 0.19 | 19 | 47,500 M^-1 sec^-1 |  | IC50 ([3]; cells printed in nM): 0.3 µM; kirr [6]: 0.10 s⁻¹; Ki [6]: 2.2 µM
8 | (S,S)-(E)-3-[4-morpholinecarbonyl-(1,2,3,4-tetrahydro-3-isoquinoline-carbonyl)]amino-5-phenyl-1-phenylsulfonyl-1-pentene [Mu-Tic-HphVSPh] |  |  |  |  |  |  |  |  |  |  | 0 M⁻¹ s⁻¹ | 630,000 M^-1 sec^-1 |  |  |  |  |  |  |  | effective | k/KI (kirr/KI) (cruzain, from T. cruzi): 0 M⁻¹ s⁻¹; kobs /[I]* (approximate second-order inactivation constant) [6]: 12,600 M^-1 sec^-1; k/KI (kirr/KI) (calpain): 0 M⁻¹ s⁻¹
9 | (S)-(E)-4-(4-morpholinecarbonylphenylalanyl)amino-6- phenyl-2-hexenoic acid [Mu-Phe-HphVA] |  |  |  |  |  |  |  |  |  |  | 450 M⁻¹ s⁻¹ |  |  |  |  |  | 0.038 | 85 |  |  | IC50 ([3]; cells printed in μM): 2 µM; IC50 ([4]; cells printed in μM): 1000 nM
10 | (S,S)-(E)-3-[tert-butoxycarbonyl-(1,2,3,4-tetrahydro-3-isoquinolinecarbonyl)]-amino-5-phenyl-1-phenylsulfonyl-1-pentene [Boc-Tic-HphVSPh] |  |  |  |  |  |  |  |  |  |  |  |  |  |  |  |  |  |  | 0 M⁻¹ s⁻¹ | effective | k/KI (kirr/KI) (cruzain, from T. cruzi): 30,000 M^-1 sec^-1; k/KI (kirr/KI) (Cloned cathepsin S): 0 M⁻¹ s⁻¹; k/KI (kirr/KI) (calpain): 0 M⁻¹ s⁻¹
